Measured values as given in patent publication US20240215905A1, “WOUND DRESSING” (5D HEALTH PROTECTION GROUP LTD, priority 2021, published 2024).

Key:
[1] = Optical density measurements indicating AgCl precipitates/aggregates in solution; type: physicochemical; details: no bacteria present
Description: Optical density measurements can be used to indicate the presence of AgCl precipitates/aggregates in solution. […] No bacteria where present for the measurements.

[2] = test system: Pseudomonas; assay: Bacterial proliferation assay (Colony Forming Units) with added silver; type: cell-based; details: for added Ag^+ concentration at which antibacterial efficacy is apparent: 0.3 ppm is the lowest concentration measured (range 0.3 to 300 ppm)
Procedure: To assess the antibacterial efficacy of the silver, and to correlate this with the sensor response, bacterial proliferation assays were performed on MHB2, PBS, NaNO3 and SWF solutions with added silver at concentrations between 0.3 to 300 ppm.

## [Ag+] [Ag^+, silver ions]
[1]; PBS
  added Ag^+ concentration above which AgCl precipitation is seen (optical density): above 1 ppm
[1]; SWF
  added Ag^+ concentration above which AgCl precipitation is seen (optical density): above 30 ppm
[2]; NaNO3 solution
  added Ag^+ concentration at which antibacterial efficacy is apparent: ≤ 0.3 ppm
[2]; PBS solution
  added Ag^+ concentration at which antibacterial efficacy is apparent: ≤ 0.3 ppm
[2]; SWF (simulated wound fluid, 33 g/L BSA) solution
  added Ag^+ concentration at which antibacterial efficacy is seen: ≥ 30 ppm
